Laboratory results taken from patent US12371454B2, “Cyclic peptide compound having Kras inhibitory action” (priority 2019, dated 2025).
Positions of bridges follow the written chain, without caps; N, C: chain ends. Non-standard residues stand in square brackets, D forms with d. Residues, ends and D or L forms follow the SMILES beside them. *: point of attachment. hPhe(3-Cl-4-CF3) = N[C@@H](CCc1ccc(C(F)(F)F)c(Cl)c1)C(=O)O; hPhe(3-F,4-CF3) = N[C@@H](CCc1ccc(C(F)(F)F)c(F)c1)C(=O)O; NMePhe(4-CF3) = CN[C@@H](Cc1ccc(C(F)(F)F)cc1)C(=O)O; Pro(trans-4-Ph) = O=C(O)[C@@H]1C[C@@H](c2ccccc2)CN1; 3Oxa8azabicyclo(3.2.1)octane = C1CC2COCC1N2*; NMeAbu(4,4,4-F3) = CN[C@@H](CC(F)(F)F)C(=O)O; NMePhe(4-Cl) = CN[C@@H](Cc1ccc(Cl)cc1)C(=O)O; NMePhe(4-Me) = CN[C@@H](Cc1ccc(C)cc1)C(=O)O; NMePhe(2-Cl) = CN[C@@H](Cc1ccccc1Cl)C(=O)O; NMeAla(cPent) = CN[C@@H](CC1CCCC1)C(=O)O; Phe(3-I) = N[C@@H](Cc1cccc(I)c1)C(=O)O; NMeGly(cBu) = CN[C@H](C(=O)O)C1CCC1; NMeCha = CN[C@@H](CC1CCCCC1)C(=O)O; NMeChg = CN[C@H](C(=O)O)C1CCCCC1; NMeI = CC[C@H](C)[C@H](NC)C(=O)O; Gly(cBu) = N[C@H](C(=O)O)C1CCC1; NMeD = CN[C@@H](CC(=O)O)C(=O)O; AllylGly = C=CC[C@H](N)C(=O)O; NMeL = CN[C@@H](CC(C)C)C(=O)O; NMeV = CN[C@H](C(=O)O)C(C)C; d(β3hA) = C[C@@H](N)CC(=O)O; NMeS = CN[C@@H](CO)C(=O)O; NMeA = CN[C@@H](C)C(=O)O; Nle = CCCC[C@H](N)C(=O)O; Piperidide = C1CCN(*)CC1; Ac5c = NC1(C(=O)O)CCCC1; Aze = O=C(O)[C@@H]1CCN1; Sar = CNCC(=O)O; Propyl = CCC*

What was measured:
[1] = tested on: Human pancreatic cancer cell line AsPC-1; assay: Measurement of AsPC-1 cell growth inhibition (AsPC-1 CGI); assay type: cell-based; conditions: 96 h
In short: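 AsPC-1 cells in 15% FBS RPMI-1640 were exposed to test compound for 96 hours at 37° C, with CellTiter-Glo as endpoint.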

[2] = molecular target: T1, Kras and SOS1 (biotin-tagged human Kras loaded with GDP, His-tagged human SOS1) (Homo sapiens, UniProt P01116, G12D); assay: Protein-protein interaction inhibition between Kras and SOS1 (KrasGl2D-SOS PPI) using AlphaScreen; assay type: binding; conditions: AlphaScreen; biotin-tagged human Kras loaded with GDP, His-tagged human SOS1; read-out: KRAS G12D-SOS PPI IC50
T1 construct: made in house; host or cells: E. coli (stated for Kras only)
In short: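 AlphaScreen format: Ni donor beads capture His-SOS1, streptavidin acceptor beads capture biotinylated Kras (E. coli-expressed, GDP-loaded post-purification). Excite 680 nm, read 520-620 nm.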

T1 sequence (P01116 1-188 isoform P01116-2 G12D): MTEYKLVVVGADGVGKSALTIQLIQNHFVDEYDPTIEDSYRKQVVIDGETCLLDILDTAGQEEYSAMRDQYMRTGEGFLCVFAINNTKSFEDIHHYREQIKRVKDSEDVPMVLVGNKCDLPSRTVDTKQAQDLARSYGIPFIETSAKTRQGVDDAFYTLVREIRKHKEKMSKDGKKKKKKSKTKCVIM

Structure (SMILES)	IC50 [1]	IC50 [2]
CCCOC[C@H]1C(=O)N(C)CC(=O)N[C@@H](CCc2ccc(C(F)(F)F)c(Cl)c2)C(=O)N2CCC[C@H]2C(=O)NC2(CCCC2)C(=O)N(C)[C@@H](C2CCCCC2)C(=O)N(C)[C@H](C(=O)N2C3CCC2COC3)CC(=O)N(C)[C@@H](C2CCC2)C(=O)N[C@@H]([C@@H](C)CC)C(=O)N(C)CC(=O)N(C)CC(=O)N1C [Compound 140] ([NMeGly(cBu)]I[Sar][Sar][NMeS](Propyl)[Sar][hPhe(3-Cl-4-CF3)]P[Ac5c][NMeChg][NMeD]-{3Oxa8azabicyclo(3.2.1)octane}; lactam N-11)	100 to 500 nM	0.81 nM
CC[C@H](C)[C@@H]1NC(=O)[C@H](CC(C)C)N(C)C(=O)C[C@@H](C(=O)N2CCCCC2)N(C)C(=O)[C@H](C2CCCCC2)N(C)C(=O)C2(CCCC2)NC(=O)[C@@H]2C[C@@H](c3ccccc3)CN2C(=O)[C@H](CCc2ccc(C(F)(F)F)c(Cl)c2)NC(=O)CN(C)C(=O)[C@H](CC2CCCCC2)N(C)C(=O)[C@@H]2CCN2C(=O)CN(C)C1=O [Compound 147] ([NMeL]I[Sar][Aze][NMeCha][Sar][hPhe(3-Cl-4-CF3)][Pro(trans-4-Ph)][Ac5c][NMeChg][NMeD]-Piperidide; lactam N-11)	100 to 500 nM	6.7 nM
C=CC[C@@H]1NC(=O)[C@H](CC(C)C)N(C)C(=O)C[C@@H](C(=O)N2CCCCC2)N(C)C(=O)[C@H](C2CCCCC2)N(C)C(=O)C2(CCCC2)NC(=O)[C@@H]2CCCN2C(=O)[C@H](CCc2ccc(C(F)(F)F)c(Cl)c2)NC(=O)CN(C)C(=O)[C@H](CC2CCCCC2)N(C)C(=O)CN(C)C(=O)CN(C)C1=O [Compound 164] ([NMeL][AllylGly][Sar][Sar][NMeCha][Sar][hPhe(3-Cl-4-CF3)]P[Ac5c][NMeChg][NMeD]-Piperidide; lactam N-11)	100 to 500 nM	2.2 nM
CCCC[C@@H]1NC(=O)[C@H](Cc2cccc(I)c2)NC(=O)CN(C)C(=O)[C@H](Cc2ccc(Cl)cc2)N(C)C(=O)CN(C)C(=O)CN(C)C(=O)[C@H]([C@@H](C)CC)NC(=O)[C@H](CC(C)C)N(C)C(=O)C[C@@H](C(=O)N2CCCCC2)N(C)C(=O)[C@H](CC(C)C)NC(=O)[C@H](Cc2ccccc2Cl)N(C)C1=O [Compound 168] ([NMeL]I[Sar][Sar][NMePhe(4-Cl)][Sar][Phe(3-I)][Nle][NMePhe(2-Cl)]L[NMeD]-Piperidide; lactam N-11)	100 to 500 nM	29 nM
CC[C@H](C)[C@@H]1NC(=O)[C@H](CC(F)(F)F)N(C)C(=O)C[C@@H](C(=O)N2C3CCC2COC3)N(C)C(=O)[C@H](C2CCCCC2)N(C)C(=O)C2(CCCC2)NC(=O)[C@@H]2CCCN2C(=O)[C@H](CCc2ccc(C(F)(F)F)c(Cl)c2)NC(=O)CN(C)C(=O)[C@H](Cc2ccc(C(F)(F)F)cc2)N(C)C(=O)CN(C)C(=O)CN(C)C1=O [Compound 173] ([NMeAbu(4,4,4-F3)]I[Sar][Sar][NMePhe(4-CF3)][Sar][hPhe(3-Cl-4-CF3)]P[Ac5c][NMeChg][NMeD]-{3Oxa8azabicyclo(3.2.1)octane}; lactam N-11)	20 to 50 nM	0.56 nM
CC[C@H](C)[C@@H]1NC(=O)[C@H](CC(C)C)N(C)C(=O)C[C@@H](C)NC(=O)[C@H](C(C)C)N(C)C(=O)C2(CCCC2)NC(=O)[C@@H]2CCCN2C(=O)[C@H](CCc2ccc(C(F)(F)F)c(F)c2)NC(=O)CN(C)C(=O)[C@H](CC2CCCCC2)N(C)C(=O)[C@@H]2CCN2C(=O)CN(C)C1=O [Compound 211] (cyclo([Ac5c][NMeV][d(β3hA)][NMeL]I[Sar][Aze][NMeCha][Sar][hPhe(3-F,4-CF3)]P))	100 to 500 nM	43 nM
CC[C@H](C)[C@@H]1NC(=O)[C@H](CC(C)C)N(C)C(=O)C[C@@H](C(=O)N(C)C)N(C)C(=O)[C@H]([C@@H](C)CC)N(C)C(=O)C2(CCCC2)NC(=O)[C@H](Cc2ccccc2Cl)N(C)C(=O)[C@H](CCc2ccc(C(F)(F)F)c(Cl)c2)NC(=O)CN(C)C(=O)[C@H](Cc2ccc(C)cc2)N(C)C(=O)[C@@H]2CCN2C(=O)[C@H](C)N(C)C1=O [Compound 216] ([NMeL]I[NMeA][Aze][NMePhe(4-Me)][Sar][hPhe(3-Cl-4-CF3)][NMePhe(2-Cl)][Ac5c][NMeI][NMeD]-NMe2; lactam N-11)	100 to 500 nM	8 nM
CC[C@H](C)[C@@H]1NC(=O)[C@H](CC(C)C)N(C)C(=O)C[C@@H](C(=O)N2CCCCC2)N(C)C(=O)[C@H](C(C)C)N(C)C(=O)C2(CCCC2)NC(=O)[C@@H]2CCCN2C(=O)[C@H](CCc2ccc(C(F)(F)F)c(Cl)c2)NC(=O)CN(C)C(=O)[C@H](CC2CCCC2)N(C)C(=O)CN(C)C(=O)CN(C)C1=O [Compound 220] ([NMeL]I[Sar][Sar][NMeAla(cPent)][Sar][hPhe(3-Cl-4-CF3)]P[Ac5c][NMeV][NMeD]-Piperidide; lactam N-11)	100 to 500 nM	3.1 nM
CC(C)C[C@H]1C(=O)N[C@@H](C2CCC2)C(=O)N(C)CC(=O)N(C)CC(=O)N(C)[C@@H](CC2CCCCC2)C(=O)N(C)CC(=O)N[C@@H](CCc2ccc(C(F)(F)F)c(Cl)c2)C(=O)N2CCC[C@H]2C(=O)NC2(CCCC2)C(=O)N(C)[C@@H](C(C)C)C(=O)N(C)[C@H](C(=O)N2CCCCC2)CC(=O)N1C [Compound 221] ([NMeL][Gly(cBu)][Sar][Sar][NMeCha][Sar][hPhe(3-Cl-4-CF3)]P[Ac5c][NMeV][NMeD]-Piperidide; lactam N-11)	100 to 500 nM	2.8 nM
